The record followed here is US4713376A, “Dementia-improving and therapeutic agents” (Toyama Chemical Co., Ltd., priority 1985, dated 1987).

Data set [1] can be described thus: Transference into brain and stimulation of cerebral metabolism. The conditions noted are these: in vivo.
Data set [2] in a line: Mouse acute toxicity by intraperitoneal injection. Conditions: in vivo, ip. The text has this:
(§1) Next, among the present compounds [I], α-acetoxy-α-methylaceticacid trimethylammonioethyl ester toluene-4-sulfonate (hereinafter referred to as ALT) and bis(α-acetoxy-α-methylacetic acid trimethylammonioethyl ester) naphthalene-1,5-disulfonate (general name: aclatonium napadisilate) were […] for mouse acute toxicity by intraperitoneal injection as well as for hygroscopicity and stability.

The format of data set [3] is physicochemical. The conditions noted are these: 10 days, relative humidity 55%; for Appearance: room temperature (30° C.); for Decomposition percentage: hydroxylamine method, 30° C. As for the experimental part: as §1
(§2) Stored for 10 days at room temperature (30° C.) at a relative
*2 Measured in accordance with the hydroxylamine method for ester (Jikken
Kagaku Koza, Vol. 24 Seibutsu Kagaku II, p 253 to 255, Maruzen).
Decomposition percentage (%) = [1 - (absorbance of test
sample)/(absorbance of standard solution)] × 100

A further data set has as its system patients. Description: Side effects in the clinical cases. In kind it is in vivo. Conditions: all of the above clinical cases.
A further data set deals with dementia. Description: Neuropsychiatric symptoms accompanying dementia and cognitive function, summary of clinical cases. In kind it is in vivo, patients. As for the experimental part: (§3) The degree of dementia was diagnosed in patients on the basis of DSM-III criteria with reference to the neuropsychiatric symptoms and findings of the CT scan of the head regions.
(§4) The overall improvement degree of the present drug was evaluated from the neuropsychiatric symptoms, scores of activity of daily living and Hasegawa's rating scales.

For a further data set, the system named is Alzheimer's disease. Put plainly: Clinical case, overall improvement degree and neuropsychiatric symptoms, Alzheimer's disease. In kind it is in vivo, patients. Here is the method: as §3, §4
Case two a person, Alzheimer's disease (Overall severity: Moderate degree)
They became occasionally aware of slight change of character from 8 years ago, and they lived without specific changes, but they became spiritless and not to express their feeling from 3 years ago. At the admission, they could not work entirely and was spiritless, and had contact disturbance with other patients, and decrease of memory power and judgement power were noted. […] The atrophy of anterior lobe was remarkably noted at the finding of CT scan of head regions at the admission.

Data set [4] deals with senile dementia of Alzheimer's type. Put plainly: Clinical cases, overall improvement degree and neuropsychiatric symptoms, senile dementia of Alzheimer's type. In kind it is in vivo, patients. As for the experimental part:
as §3, §4
Case three senile dementia of Alzheimer's type (Overall severity: Marked high degree)
They began to have a forgetfulness from approx. 4 years ago, and became spiritless and became unable to work, and became not to express their feeling, and had wanderling impulsion. The cerebral atrophy was generally noted by the finding of CT scan of head regions at the admission.
Case four senile dementia of Alzheimer's type (Overall severity: Marked high degree)
They had occasionally a forgetfulness from approx. 10 years ago, and became unable to do agricultural work from approx. 4 years ago. The diffuse cerebral atrophy was noted by the finding of CT scan of head regions at the admission.
Case five senile dementia of Alzheimer's type (Overall severity: Moderate degree)
They began to have a forgetfulness from approx. 2 years ago, and became unable to do household affairs from 1 year ago, and became unable to distinguish their familial faces. The cerebral atrophy and enlargement of cerebral ventricle were noted by the finding of CT scan of head regions at the admission. The treatment was changed to the administration of 300 mg/day of the present drug because the efficacy was ineffective with other cerebral metabolic improvement drugs and cerebral-vasodilators.
Case one senile dementia of Alzheimer's type (overall severity: Moderate degree)
They began to have a forgetfulness and spiritlessness after operation of fracture of neck of femur from 10 years ago. The disorientation was strongly noted from 2-3 years ago. The cerebral atrophy and enlargement of cerebral ventricle were noted by the finding of CT scan of head regions at the admission. The efficacy was ineffective with other various drugs than the present drug.

A short description of data set [5]: Hygroscopicity on storage. In kind it is physicochemical. The conditions noted are these: (Increased weight)/(Original weight) × 100; 10 days, 30° C., relative humidity 55%. As for the experimental part:
as §1, §2
*1 Hygroscopicity (%) = (Increased weight)/(Original weight) × 100

Turning to `CC(=O)OC(C)C(=O)OCC[N+](C)(C)C` (stereo not drawn) [Aclatonium napadisilate, bis(α-acetoxy-α-methylacetic acid trimethylammonioethyl ester) naphthalene-1,5-disulfonate], in data set [1], the cerebral metabolism entry is given as “stimulated” and the transference into brain entry was “found”. In addition, in data set [2], the LD50 (as a rule, the dose at which mortality reaches 50%) is 636 mg/kg. Further, in data set [3], the Appearance entry was “No change” and the Decomposition percentage is recorded as 0.2%. Further, in the data set with patients, the side effect result is given as “no side effect”. In addition, in the data set with dementia (clinical cases), the “effect on cognitive function” value is “has not been confirmed at this time” and the “improvement of neuropsychiatric symptoms accompanying dementia” value is “effective”. For the same molecule, in the data set on dementia (human, in vivo), the clinical effect entry is “confirmed” and the “effect on severe dementia” value was “confirmed”. The defecation entry in the data set on Alzheimer's disease (Clinical Case 5) is “defecation became smooth”. Also, the “movement frequency and spontaneousness” value in the data set with Alzheimer's disease (Clinical Case 5, 4th week) is “increase of movement frequency and improvement of decrease of spontaneousness”. The overall improvement degree entry with Alzheimer's disease (Clinical Case 5, Moderate degree) is recorded as “improvement”. In addition, the “neuropsychiatric symptoms and activity of daily living” value in data set [4] (Clinical Case 1, 300 mg/day, 2nd week) was “they could gait to outside of room at the 2nd week, and their movement behavior was improved, and spontaneousness increased and feeling became clear”. Further, the overall improvement degree result in data set [4] (Clinical Case 1, Marked high degree, 300 mg/day) was “improvement”. For the same molecule, the “neuropsychiatric symptoms (spontaneousness, conversation)” value in data set [4] (Clinical Case 2) is “spontaneousness increased, and conversation with other patients increased, and they had favorable communication and became fortunate”. In data set [4] (Clinical Case 2, Marked high degree), the overall improvement degree entry was “slight improvement”. In data set [4] (Clinical Case 3, 300 mg/day), the “decrease of spontaneousness and disturbance of emotion” value is listed as “improved”; the intellectual function entry was “No changes”. Besides, the “activity of daily living and expression” value in data set [4] (Clinical Case 3, 300 mg/day, approx. 2nd week after administration) is “they became able to sit and gait, and eat food by themself and expression became clear”. In addition, in data set [4] (Clinical Case 3, Moderate degree, 300 mg/day), the overall improvement degree entry is recorded as “slight improvement”. Besides, in data set [4] (Clinical Case 4, 300 mg/day, from the 2nd week), the “conversation frequency and activity of daily living” value is “their conversation frequency with other patients increased and they became able to go out from their room and occasionally go to toilet”. Moreover, the overall improvement degree result in data set [4] (Clinical Case 4, Moderate degree, 300 mg/day) is on record as “slight improvement”. In data set [5], this molecule gave a Hygroscopicity of 0.1%.
`CC(=O)OC(C)C(=O)OCC[N+](C)(C)C.Cc1ccc(S(=O)(=O)[O-])cc1` (stereo not drawn) [ALT, α-acetoxy-α-methylaceticacid trimethylammonioethyl ester toluene-4-sulfonate]: in data set [2], the LD50 worked out at 657 mg/kg. Moreover, in data set [3], the Appearance entry is on record as “No change” and the Decomposition percentage stood at 0.5%. For the same molecule, in data set [5], the Hygroscopicity came out at 0.6%.
